The source of these data is patent US9388162B2, “Substituted morphinans and the use thereof” (Purdue Pharma L.P., priority 2012, dated 2016).

Test [1] has as its target recombinant human kappa opioid receptor (κ) (Homo sapiens (Human), UniProt P41145). The experiment in a line: κ-opioid receptor radioligand dose displacement binding assay ([3H]-U69,593). Particulars: mean ± SEM, read-out: Binding Affinity Opioid Receptor Ki (nM) [mean ± SEM] κ. Here is the method: (§1) Membranes from HEK-293 cells, CHO or U-2 OS cells expressing the recombinant human kappa opioid receptor (κ) were prepared by lysing cells in ice cold hypotonic buffer (2.5 mM MgCl2, 50 mM HEPES, pH 7.4) (10 mL/10 cm dish) followed by homogenization with a tissue grinder/Teflon pestle. Membranes were collected by centrifugation at 30,000×g for 15 min at 4° C. and pellets were resuspended in hypotonic buffer to a final concentration of 1-3 mg/mL. Protein concentrations were determined using the BioRad protein assay reagent with bovine serum albumen as standard. Aliquots of κ receptor membranes were stored at −80° C.
Radioligand dose displacement assays used 0.4 nM [^3H]-U69,593 (GE Healthcare, Piscataway, N.J.; 40 Ci/mmole) with 15 μg membrane protein (recombinant κ opioid receptor expressed in HEK 293 cells; in-house prep) in a final volume of 200 μl binding buffer (5% DMSO, 50 mM Trizma base, pH 7.4). Non-specific binding was determined in the presence of 10 μM unlabeled naloxone or U69,593. All reactions were performed in 96-well polypropylene plates for 1 hour at a temperature of about 25° C. Binding reactions were terminated by rapid filtration onto 96-well Unifilter GF/C filter plates (Perkin Elmer, Shelton, Conn.) presoaked in 0.5% polyethylenimine (Sigma). Harvesting was performed using a 96-well tissue harvester (Perkin Elmer, Shelton, Conn.) followed by five filtration washes with 200 μl ice-cold binding buffer. Filter plates were subsequently dried at 50° C. for 1-2 hours. Fifty μl/well scintillation cocktail (Perkin Elmer, Shelton, Conn.) was added and plates were counted in a Packard Top-Count for 1 min/well.
(§2) The following tables provide results on the efficacy of binding and activity response of exemplified Compounds of the Invention at the μ- and κ-opioid receptors. In TABLE 3, binding affinity of certain Compounds of the Invention to the μ- and κ-opioid receptors was determined as described above. In TABLE 4, activity response of certain Compounds of the Invention to the μ- and κ-opioid receptors was determined as described above for functional assays using HEK-293 cells. In TABLE 5, activity response of certain Compounds of the Invention to the μ- and κ-opioid receptors was determined as described above using U-2 OS cells.

For test [2], the target named is T1, μ-opioid receptors (Homo sapiens (Human), UniProt P35372). Briefly: μ-opioid receptor [35S]GTPγS functional assay, HEK-293 cells. The test is classed as biochemical. Particulars: μ GTP; for EC50: read-out: Activity Response μ EC50 (nM) [mean ± SEM]; for Emax: relative to DAMGO, read-out: Activity Response μ Emax (%). Here is the method: [^35S]GTPγS functional assays were conducted using freshly thawed μ-receptor membranes prepared from a cell line expressing recombinant μ opioid receptor in a HEK-293, CHO or U-2 OS cell background or purchased from a commercial source (Perkin Elmer, Shelton, Conn.; or DiscovRx, Fremont, Calif.). Assay reactions were prepared by sequentially adding the following reagents to binding buffer (100 mM NaCl, 10 mM MgCl2, 20 mM HEPES, pH 7.4) on ice (final concentrations indicated): membrane protein (0.026 mg/mL), saponin ([…]), GDP ([…]) and [^35S]GTPγS (0.20 nM; Perkin Elmer, Shelton, Conn.). The prepared membrane solution (190 μl/well) was transferred to 96-shallow well polypropylene plates containing 10 μl of 20× concentrated stock solutions of the agonist [D-Ala^2, N-methyl-Phe^4 Gly-ol^5]-enkephalin (DAMGO) prepared in dimethyl sulfoxide (DMSO). Plates were incubated for 30 min at about 25° C. with shaking. Reactions were terminated by rapid filtration onto 96-well Unifilter GF/B filter plates (Perkin Elmer, Shelton, Conn.) using a 96-well tissue harvester (Perkin Elmer, Shelton, Conn.) followed by three filtration washes with 200 μl of ice-cold wash buffer (10 mM NaH2PO4, 10 mM Na2HPO4, pH 7.4). Filter plates were subsequently dried at 50° C. for 2-3 hours. BetaScint scintillation cocktail (Perkin Elmer, Shelton, Conn.) was added (50 μl/well) and plates were counted using a Packard Top-Count for 1 min/well. Data were analyzed using the sigmoidal dose-response curve fitting functions in GraphPad PRISM v. 3.0, or an in-house function for non-linear, sigmoidal dose-response curve-fitting.
μ GTP EC50 is the concentration of a compound providing 50% of the maximal response for the compound at a μ-opioid receptor.
μ GTP Emax (%) is the maximal effect elicited by a compound relative to the effect elicited by DAMGO, a standard μ agonist. Generally, the μ GTP Emax (%) value measures the efficacy of a compound to treat or prevent pain or other Conditions.
as §2

The target of test [3] is T2, κ opioid receptor (Homo sapiens (Human), UniProt P41145). The experiment in a line: κ-opioid receptor [35S]GTPγS functional assay, HEK-293 cells. The following applies: κ GTP; for EC50: read-out: Activity Response κ EC50 (nM) [mean ± SEM]; for Emax: relative to U69,593, read-out: Activity Response κ Emax (%). The test is classed as biochemical. Here is the method:
as §1
Functional [^35S]GTPγS binding assays were conducted as follows. κ opioid receptor membrane solution was prepared by sequentially adding final concentrations of 0.026 μg/μl κ membrane protein (in-house), 10 μg/mL saponin, 3 μM GDP and 0.20 nM [^35S]GTPγS to binding buffer (100 mM NaCl, 10 mM MgCl2, 20 mM HEPES, pH 7.4) on ice. The prepared membrane solution (190 μl/well) was transferred to 96-shallow well polypropylene plates containing 10 μl of 20× concentrated stock solutions of agonist prepared in DMSO. Plates were incubated for 30 min at a temperature of about 25° C. with shaking. Reactions were terminated by rapid filtration onto 96-well Unifilter GF/B filter plates (Perkin Elmer, Shelton, Conn.) using a 96-well tissue harvester (Packard) and followed by three filtration washes with 200 μl ice-cold binding buffer (10 mM NaH2PO4, 10 mM Na2HPO4, pH 7.4). Filter plates were subsequently dried at 50° C. for 2-3 hours. Fifty μl/well scintillation cocktail (Perkin Elmer, Shelton, Conn.) was added and plates were counted in a Packard Top-Count for 1 min/well.
κ GTP EC50 is the concentration of a compound providing 50% of the maximal response for the compound at a κ receptor.
κ GTP Emax (%) is the maximal effect elicited by a compound relative to the effect elicited by U69,593.
In TABLE 3, binding affinity of certain Compounds of the Invention to the μ- and κ-opioid receptors was determined as described above. In TABLE 4, activity response of certain Compounds of the Invention to the μ- and κ-opioid receptors was determined as described above for functional assays using HEK-293 cells. In TABLE 5, activity response of certain Compounds of the Invention to the μ- and κ-opioid receptors was determined as described above using U-2 OS cells.

In test [4] the target is T1, μ-opioid receptors. The experiment in a line: μ-opioid receptor [35S]GTPγS functional assay, U-2 OS cells. The test is classed as biochemical. Particulars: μ GTP; for EC50: read-out: Activity Response μ EC50 (nM) [mean ± SEM]; for Emax: relative to DAMGO, read-out: Activity Response μ Emax (%). Background: GTPγS is a poorly hydrolysed GTP analogue; its binding reports G protein activation.

The target of test [5] is T2, κ opioid receptor. Briefly: κ-opioid receptor [35S]GTPγS functional assay, U-2 OS cells. The test is classed as biochemical. Particulars: κ GTP; for EC50: read-out: Activity Response κ EC50 (nM) [mean ± SEM]; for Emax: relative to U69,593, read-out: Activity Response κ Emax (%).

Usually Ki stands for a dissociation constant, usually derived from enzyme kinetics or from competition with a known ligand. As a reminder, the EC50 is the concentration at which the effect is half-maximal. As usually defined, the Emax is the maximal effect, on the per cent scale that the assay sets.

A value given as a limit tells only on which side of the number the result lay.

On to `CC(C)C[C@H](NC(=O)C[C@H]1C[C@@]2(O)[C@H]3Cc4ccc(O)cc4[C@@]2(CCN3CC2CC2)CC1=O)C(=O)O` [Compound 19, (S)-2-(2-((4bR,7R,8aS,9R)-11-(cyclopropylmethyl)-3,8a-dihydroxy-6-oxo-6,7,8,8a,9,10-hexahydro-5H-9,4b-(epiminoethano)phenanthren-7-yl)acetamido)-4-methylpentanoic acid], for which, in test [1], the inhibition constant (Ki) worked out at 146 ± 29.7 nM. Besides, at μ-opioid receptors [2], the concentration for a half-maximal effect (EC50) was determined as 49.7 ± 7.48 nM and the maximum response (Emax) stood at 37.5 ± 3.93%. At κ opioid receptor [3], the 50% effective concentration (EC50) stood at 201 ± 25.9 nM and the maximal response (Emax) was 41.3 ± 2.85%.
As for `COc1ccc2c(c1)[C@]13CCN(CC4CC4)[C@H](C2)[C@]1(O)C[C@H](CC(=O)N[C@@H](C)C(=O)O)C(=O)C3` [Compound 13, (S)-2-(2-((4bR,7R,8aS,9R)-11-(cyclopropylmethyl)-8a-hydroxy-3-methoxy-6-oxo-6,7,8,8a,9,10-hexahydro-5H-9,4b-(epiminoethano)phenanthren-7-yl)acetamido)propanoic acid], in test [1], the Ki was greater than 20000 nM. Further, on μ-opioid receptors [2], the EC50 was 4600 ± 471 nM and the maximal response (Emax) was determined as 66 ± 2.65%.
As to `COc1ccc2c(c1)[C@]13CCN(CC4CC4)[C@H](C2)[C@]1(O)C[C@H](CC(=O)O)C(=O)C3` [Compound 8, 2-((4bR,7R,8aS,9R)-11-(cyclopropylmethyl)-8a-hydroxy-3-methoxy-6-oxo-6,7,8,8a,9,10-hexahydro-5H-9,4b-(epiminoethano)phenanthren-7-yl)acetic acid], the Ki in test [1] came out at 261 ± 97.3 nM. Also, the figures for the concentration giving a half-maximal response (EC50) at μ-opioid receptors [2] and at κ opioid receptor [3] were 703 ± 72 nM and 4440 ± 679 nM, respectively. For the same compound, the Emax at μ-opioid receptors [2] was determined as 59.7 ± 8.69%; on κ opioid receptor [3], 66.7 ± 6.84%.
Take `COc1ccc2c(c1)[C@]13CCN(CC4CC4)[C@H](C2)[C@]1(O)C[C@H](CC(=O)N[C@@H](CC(C)C)C(=O)O)C(=O)C3` [Compound 18, (S)-2-(2-((4bR,7R,8aS,9R)-11-(cyclopropylmethyl)-8a-hydroxy-3-methoxy-6-oxo-6,7,8,8a,9,10-hexahydro-5H-9,4b-(epiminoethano)phenanthren-7-yl)acetamido)-4-methylpentanoic acid]: the Ki in test [1] came to 15900 nM. Further, on μ-opioid receptors [2], the concentration for a half-maximal effect (EC50) was found to be 2750 ± 221 nM and the maximal effect (Emax) is 50 ± 1.53%.
Turning to `CC(C)CNC(=O)C[C@H]1C[C@@]2(O)[C@H]3Cc4ccc(O)cc4[C@@]2(CCN3C)CC1=O` [Compound 82, 2-((4bR,7R,8aS,9R)-3,8a-dihydroxy-11-methyl-6-oxo-6,7,8,8a,9,10-hexahydro-5H-9,4b-(epiminoethano)phenanthren-7-yl)-N-isobutylacetamide], on μ-opioid receptors [2], the EC50 came out at 2330 ± 200 nM and the Emax worked out at 67.8 ± 4.01%.
On to `O=C(O)CC1(CC(=O)O)C[C@@]2(O)[C@H]3Cc4ccc(O)cc4[C@@]2(CCN3CC2CC2)CC1=O` [Compound 12, 2,2′-((4bR,8aS,9R)-11-(cyclopropylmethyl)-3,8a-dihydroxy-6-oxo-6,7,8,8a,9,10-hexahydro-5H-9,4b-(epiminoethano)phenanthrene-7,7-diyl)diacetic acid], for which, in test [1], the inhibition constant (Ki) was determined as 3410 ± 538 nM. The half-maximal effective concentration (EC50) at μ-opioid receptors [2] was greater than 200000 nM.
As to `O=C1C[C@]23CCN(CC4CC4)[C@H](Cc4ccc(O)cc42)[C@]3(O)C[C@@H]1CCO` [Compound 54, (4bR,7S,8aS,9R)-11-(cyclopropylmethyl)-3,8a-dihydroxy-7-(2-hydroxyethyl)-8,8a,9,10-tetrahydro-5H-9,4b-(epiminoethano)phenanthren-6(7H)-one], the half-maximal effective concentration (EC50) is 14.2 ± 3.39 nM on μ-opioid receptors [2], 5.02 ± 0.14 nM at κ opioid receptor [3], 1.81 ± 0.57 nM at μ-opioid receptors [4] and 4.82 ± 0.71 nM on κ opioid receptor [5]. Moreover, the Emax on μ-opioid receptors [2] was determined as 25 ± 2.04%; on κ opioid receptor [3], 34.3 ± 0.67%; at μ-opioid receptors [4], 26.3 ± 2.33%; at κ opioid receptor [5] it was 88.2 ± 2.53%.
Take `CC(C)CC[C@H]1C[C@@]2(O)[C@H]3Cc4ccc(O)cc4[C@@]2(CCN3CC2CC2)CC1=O` [Compound 64, (4bR,7S,8aS,9R)-11-(cyclopropylmethyl)-3,8a-dihydroxy-7-isopentyl-8,8a,9,10-tetrahydro-5H-9,4b-(epiminoethano)phenanthren-6(7H)-one]: the half-maximal effective concentration (EC50) at μ-opioid receptors [2] is greater than 200000 nM; on κ opioid receptor [3] it was 4.3 ± 1.55 nM; on μ-opioid receptors [4], greater than 200000 nM; at κ opioid receptor [5] it was 4.71 ± 0.12 nM. Further, the Emax came to 1% on μ-opioid receptors [2], 33 ± 1.73% on κ opioid receptor [3], 7.5% at μ-opioid receptors [4] and 87.3 ± 2.6% on κ opioid receptor [5].
For the compound `COc1ccc2c(c1)[C@]13CCN(CC4CC4)[C@H](C2)[C@]1(O)C[C@H](CC(=O)N1CCC[C@H]1C(=O)O)C(=O)C3` [Compound 16, (S)-1-(2-((4bR,7R,8aS,9R)-11-(cyclopropylmethyl)-8a-hydroxy-3-methoxy-6-oxo-6,7,8,8a,9,10-hexahydro-5H-9,4b-(epiminoethano)phenanthren-7-yl)acetyl)pyrrolidine-2-carboxylic acid], in test [1], the inhibition constant (Ki) was greater than 20000 nM. At μ-opioid receptors [2], the EC50 amounted to 6770 ± 1370 nM and the maximum response (Emax) amounted to 28.7 ± 1.86%.
Take `COc1ccc2c(c1)[C@]13CCN(CC4CC4)[C@H](C2)[C@]1(O)CC(CC(=O)O)(CC(=O)O)C(=O)C3` [Compound 10, 2,2′-((4bR,8aS,9R)-11-(cyclopropylmethyl)-8a-hydroxy-3-methoxy-6-oxo-6,7,8,8a,9,10-hexahydro-5H-9,4b-(epiminoethano)phenanthrene-7,7-diyl)diacetic acid]: the Ki in test [1] is greater than 20000 nM. For the same compound, on μ-opioid receptors [2], the half-maximal effective concentration (EC50) stood at 14700 ± 1530 nM and the maximal response (Emax) turned out to be 16 ± 2.65%.
